Source: patent US9249129B2, “Morpholino substituted urea derivatives as mTOR inhibitors” (CELLZOME LIMITED, priority 2010, dated 2016)

Experiments:
Assay in all cases: kinobeads assay with mass spectrometry detection of kinases (kinase selectivity profile)
Type in all cases: binding
kinases (kinome) [1] = target: T1, kinases (kinome) (Homo sapiens, UniProt Q06187); settings: BTK (TK), IPI00029132
T1 construct: determined in kinobeads assays with mass spectrometry detection of kinases as described previously; endogenous in cells; host or cells: cell lysate
Source text: (§1) The protein kinase complement of the human genome (the kinome) was described previously (Manning et al., 2002. Science 298(5600):1912-1934). Sequence accession numbers are defined by the International Protein Index (IPI) (Kersey et al., 2004. Proteomics 4(7):1985-1988).

kinases (kinome) [2] = target: T2, kinases (kinome) (Homo sapiens, UniProt P48729); settings: CK1a (CK1), IPI00448798
T2 construct: determined in kinobeads assays with mass spectrometry detection of kinases as described previously; endogenous in cells; host or cells: cell lysate
Source text: as §1

kinases (kinome) [3] = target: T3, kinases (kinome) (Homo sapiens, UniProt P16591); settings: FER (TK), IPI00029263
T3 construct: determined in kinobeads assays with mass spectrometry detection of kinases as described previously; endogenous in cells; host or cells: cell lysate
Source text: as §1

kinases (kinome) [4] = target: T4, kinases (kinome) (Homo sapiens, UniProt Q13233); settings: MAP3K1 (STE), IPI00855985
T4 construct: determined in kinobeads assays with mass spectrometry detection of kinases as described previously; endogenous in cells; host or cells: cell lysate
Source text: as §1

kinases (kinome) [5] = target: T5, kinases (kinome) (Homo sapiens, UniProt Q9BQI3); settings: HRI (Other), IPI00328149
T5 construct: determined in kinobeads assays with mass spectrometry detection of kinases as described previously; endogenous in cells; host or cells: cell lysate
Source text: as §1

kinases (kinome) [6] = target: T6, kinases (kinome) (Homo sapiens, UniProt Q9Y2U5); settings: MAP3K2 (STE), IPI00513803
T6 construct: determined in kinobeads assays with mass spectrometry detection of kinases as described previously; endogenous in cells; host or cells: cell lysate
T6 sequence (Q9Y2U5 1-619): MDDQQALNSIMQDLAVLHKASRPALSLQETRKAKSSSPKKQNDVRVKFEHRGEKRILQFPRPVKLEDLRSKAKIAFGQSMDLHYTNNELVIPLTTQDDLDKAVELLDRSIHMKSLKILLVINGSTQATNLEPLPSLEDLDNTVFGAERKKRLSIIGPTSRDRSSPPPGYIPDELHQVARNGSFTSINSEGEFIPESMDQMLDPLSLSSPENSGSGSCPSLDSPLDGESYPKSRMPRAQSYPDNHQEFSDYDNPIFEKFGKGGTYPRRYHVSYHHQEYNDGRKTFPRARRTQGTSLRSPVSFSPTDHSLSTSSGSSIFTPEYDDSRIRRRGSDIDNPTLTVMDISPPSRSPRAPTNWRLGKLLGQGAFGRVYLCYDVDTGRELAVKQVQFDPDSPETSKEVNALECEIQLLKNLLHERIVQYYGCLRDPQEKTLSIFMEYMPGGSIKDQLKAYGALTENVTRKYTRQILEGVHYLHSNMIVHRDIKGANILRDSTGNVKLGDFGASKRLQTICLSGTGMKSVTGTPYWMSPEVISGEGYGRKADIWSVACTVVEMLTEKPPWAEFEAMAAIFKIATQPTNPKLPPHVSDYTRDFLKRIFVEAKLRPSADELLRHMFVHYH
Source text: as §1

kinases (kinome) [7] = target: T7, kinases (kinome) (Homo sapiens, UniProt Q92918); settings: HPK1 (STE), IPI00020258
T7 construct: determined in kinobeads assays with mass spectrometry detection of kinases as described previously; endogenous in cells; host or cells: cell lysate
Source text: as §1

kinases (kinome) [8] = target: T8, kinases (kinome) (Homo sapiens, UniProt P78527); settings: DNAPK (Atypical), IPI00296337
T8 construct: determined in kinobeads assays with mass spectrometry detection of kinases as described previously; endogenous in cells; host or cells: cell lysate
Source text: as §1

kinases (kinome) [9] = target: T9, kinases (kinome) (Homo sapiens, UniProt P42345); settings: mTOR (Atypical), IPI00031410; 0.1 μM ranges
T9 construct: determined in kinobeads assays with mass spectrometry detection of kinases as described previously; endogenous in cells; host or cells: cell lysate
Source text: as §1

kinases (kinome) [10] = target: T10, kinases (kinome) (Homo sapiens, UniProt Q9Y572); settings: RIPK3 (TKL), IPI00847572
T10 construct: determined in kinobeads assays with mass spectrometry detection of kinases as described previously; endogenous in cells; host or cells: cell lysate
Source text: as §1

kinases (kinome) [11] = target: T11, kinases (kinome) (Homo sapiens, UniProt Q13043); settings: MST1 (STE), IPI00011488
T11 construct: determined in kinobeads assays with mass spectrometry detection of kinases as described previously; endogenous in cells; host or cells: cell lysate
T11 sequence (Q13043 1-487): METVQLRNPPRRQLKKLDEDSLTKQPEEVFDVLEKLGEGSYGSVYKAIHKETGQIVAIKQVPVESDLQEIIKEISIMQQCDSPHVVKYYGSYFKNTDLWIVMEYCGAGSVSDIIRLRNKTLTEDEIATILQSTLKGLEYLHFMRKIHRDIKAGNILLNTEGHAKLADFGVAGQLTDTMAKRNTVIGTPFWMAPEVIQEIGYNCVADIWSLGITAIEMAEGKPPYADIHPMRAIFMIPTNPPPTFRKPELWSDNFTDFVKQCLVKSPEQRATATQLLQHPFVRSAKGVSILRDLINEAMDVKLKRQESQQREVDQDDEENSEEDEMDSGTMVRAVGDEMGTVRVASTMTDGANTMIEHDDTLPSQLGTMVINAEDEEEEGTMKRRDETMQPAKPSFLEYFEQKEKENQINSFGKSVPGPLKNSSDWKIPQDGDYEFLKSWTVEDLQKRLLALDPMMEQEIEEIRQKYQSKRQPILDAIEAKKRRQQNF
Source text: as §1

kinases (kinome) [12] = target: T12, kinases (kinome) (Homo sapiens, UniProt Q9Y4K4); settings: KHS1 (STE), IPI00294842
T12 construct: determined in kinobeads assays with mass spectrometry detection of kinases as described previously; endogenous in cells; host or cells: cell lysate
Source text: as §1

kinases (kinome) [13] = target: T13, kinases (kinome) (Homo sapiens, UniProt Q15569); settings: TESK1 (TKL), IPI00018182
T13 construct: determined in kinobeads assays with mass spectrometry detection of kinases as described previously; endogenous in cells; host or cells: cell lysate
Source text: as §1

kinases (kinome) [14] = target: T14, kinases (kinome) (Homo sapiens, UniProt P53671); settings: LIMK2 (TKL), IPI00025698
T14 construct: determined in kinobeads assays with mass spectrometry detection of kinases as described previously; endogenous in cells; host or cells: cell lysate
Source text: as §1

kinases (kinome) [15] = target: T15, kinases (kinome) (Homo sapiens, UniProt O96013); settings: PAK4 (STE), IPI00014068
T15 construct: determined in kinobeads assays with mass spectrometry detection of kinases as described previously; endogenous in cells; host or cells: cell lysate
Source text: as §1

kinases (kinome) [16] = target: T16, kinases (kinome) (Homo sapiens, UniProt Q9HCP0); settings: CK1g1 (CK1), IPI00791893
T16 construct: determined in kinobeads assays with mass spectrometry detection of kinases as described previously; endogenous in cells; host or cells: cell lysate
Source text: as §1

T3 sequence (P16591 whole entry): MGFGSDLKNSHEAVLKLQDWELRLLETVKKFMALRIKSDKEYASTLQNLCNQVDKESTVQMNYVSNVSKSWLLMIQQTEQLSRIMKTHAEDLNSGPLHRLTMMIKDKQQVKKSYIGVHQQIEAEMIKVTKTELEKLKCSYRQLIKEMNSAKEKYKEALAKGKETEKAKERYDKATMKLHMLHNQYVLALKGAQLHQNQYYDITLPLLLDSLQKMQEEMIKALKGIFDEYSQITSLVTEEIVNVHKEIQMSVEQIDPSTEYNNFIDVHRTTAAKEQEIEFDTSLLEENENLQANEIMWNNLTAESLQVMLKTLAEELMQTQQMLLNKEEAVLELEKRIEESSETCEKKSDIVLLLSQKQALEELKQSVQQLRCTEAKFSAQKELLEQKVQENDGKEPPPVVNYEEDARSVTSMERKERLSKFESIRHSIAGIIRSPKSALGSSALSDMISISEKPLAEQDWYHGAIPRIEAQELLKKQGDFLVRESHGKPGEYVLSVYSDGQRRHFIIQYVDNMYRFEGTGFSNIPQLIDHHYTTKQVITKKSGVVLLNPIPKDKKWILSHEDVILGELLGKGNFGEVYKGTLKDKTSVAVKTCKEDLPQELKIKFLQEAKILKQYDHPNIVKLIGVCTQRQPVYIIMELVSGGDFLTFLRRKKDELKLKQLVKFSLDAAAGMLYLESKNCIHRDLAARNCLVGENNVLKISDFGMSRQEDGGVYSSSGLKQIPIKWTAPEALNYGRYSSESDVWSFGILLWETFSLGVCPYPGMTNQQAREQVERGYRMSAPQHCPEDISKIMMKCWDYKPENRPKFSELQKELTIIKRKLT
T13 sequence (Q15569 whole entry): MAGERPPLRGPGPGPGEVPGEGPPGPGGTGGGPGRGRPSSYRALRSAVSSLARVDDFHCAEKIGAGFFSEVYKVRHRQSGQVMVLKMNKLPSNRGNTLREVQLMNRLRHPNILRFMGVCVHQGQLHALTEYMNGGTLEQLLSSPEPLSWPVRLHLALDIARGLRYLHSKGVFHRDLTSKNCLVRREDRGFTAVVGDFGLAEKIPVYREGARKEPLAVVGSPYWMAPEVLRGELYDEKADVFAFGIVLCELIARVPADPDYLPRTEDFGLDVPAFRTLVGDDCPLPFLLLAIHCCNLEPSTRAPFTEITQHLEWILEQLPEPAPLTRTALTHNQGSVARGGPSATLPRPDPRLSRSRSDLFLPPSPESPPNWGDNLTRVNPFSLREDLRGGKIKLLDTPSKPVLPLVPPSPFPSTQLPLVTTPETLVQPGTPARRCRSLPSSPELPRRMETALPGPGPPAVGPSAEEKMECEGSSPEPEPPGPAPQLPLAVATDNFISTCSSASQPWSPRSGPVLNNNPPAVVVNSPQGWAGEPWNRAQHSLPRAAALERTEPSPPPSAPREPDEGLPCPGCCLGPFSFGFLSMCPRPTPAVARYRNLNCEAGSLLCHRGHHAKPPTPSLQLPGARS
T14 sequence (P53671 whole entry): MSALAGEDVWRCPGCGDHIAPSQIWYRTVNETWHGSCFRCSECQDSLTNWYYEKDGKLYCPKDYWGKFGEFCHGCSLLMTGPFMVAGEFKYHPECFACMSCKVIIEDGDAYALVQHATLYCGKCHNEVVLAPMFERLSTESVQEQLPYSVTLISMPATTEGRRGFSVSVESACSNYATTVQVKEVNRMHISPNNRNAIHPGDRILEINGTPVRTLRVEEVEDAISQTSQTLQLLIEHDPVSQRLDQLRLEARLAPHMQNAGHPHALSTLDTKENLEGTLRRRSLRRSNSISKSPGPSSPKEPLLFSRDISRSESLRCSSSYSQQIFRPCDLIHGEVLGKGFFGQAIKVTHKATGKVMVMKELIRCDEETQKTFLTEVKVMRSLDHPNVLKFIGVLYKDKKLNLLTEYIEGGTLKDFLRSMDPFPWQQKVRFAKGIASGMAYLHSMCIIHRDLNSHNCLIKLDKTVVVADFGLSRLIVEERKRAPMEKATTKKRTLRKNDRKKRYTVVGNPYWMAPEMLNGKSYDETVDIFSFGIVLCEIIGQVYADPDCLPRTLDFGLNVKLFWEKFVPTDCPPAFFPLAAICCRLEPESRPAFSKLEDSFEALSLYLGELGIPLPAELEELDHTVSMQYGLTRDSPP
T15 sequence (O96013 whole entry): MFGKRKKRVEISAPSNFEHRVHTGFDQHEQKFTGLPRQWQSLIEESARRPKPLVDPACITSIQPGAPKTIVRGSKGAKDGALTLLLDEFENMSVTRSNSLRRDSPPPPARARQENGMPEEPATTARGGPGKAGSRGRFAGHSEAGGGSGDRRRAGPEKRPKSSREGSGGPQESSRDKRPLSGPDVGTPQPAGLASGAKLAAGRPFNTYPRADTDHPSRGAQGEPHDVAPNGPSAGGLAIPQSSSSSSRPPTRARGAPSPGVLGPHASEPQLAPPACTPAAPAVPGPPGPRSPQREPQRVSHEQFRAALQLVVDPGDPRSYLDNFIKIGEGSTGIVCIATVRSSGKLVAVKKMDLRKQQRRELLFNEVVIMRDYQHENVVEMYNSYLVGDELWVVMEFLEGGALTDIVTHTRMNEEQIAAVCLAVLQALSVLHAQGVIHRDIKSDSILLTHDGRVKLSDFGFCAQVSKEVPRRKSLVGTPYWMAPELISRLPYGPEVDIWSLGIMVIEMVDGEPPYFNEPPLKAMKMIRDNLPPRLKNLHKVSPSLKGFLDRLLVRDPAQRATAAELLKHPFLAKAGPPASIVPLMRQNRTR
T16 sequence (Q9HCP0 whole entry): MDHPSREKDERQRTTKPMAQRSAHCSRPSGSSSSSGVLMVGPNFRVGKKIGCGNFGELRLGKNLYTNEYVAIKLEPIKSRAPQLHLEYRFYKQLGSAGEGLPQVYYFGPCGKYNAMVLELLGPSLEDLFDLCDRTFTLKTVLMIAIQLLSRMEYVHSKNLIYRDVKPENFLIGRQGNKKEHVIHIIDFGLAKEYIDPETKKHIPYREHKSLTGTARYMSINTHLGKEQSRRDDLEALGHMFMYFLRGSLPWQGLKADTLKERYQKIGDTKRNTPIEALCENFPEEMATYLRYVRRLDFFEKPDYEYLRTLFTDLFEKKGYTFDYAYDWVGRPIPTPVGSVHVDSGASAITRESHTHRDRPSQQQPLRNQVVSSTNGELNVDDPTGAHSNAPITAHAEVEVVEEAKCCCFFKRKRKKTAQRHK
T7 sequence (Q92918 whole entry): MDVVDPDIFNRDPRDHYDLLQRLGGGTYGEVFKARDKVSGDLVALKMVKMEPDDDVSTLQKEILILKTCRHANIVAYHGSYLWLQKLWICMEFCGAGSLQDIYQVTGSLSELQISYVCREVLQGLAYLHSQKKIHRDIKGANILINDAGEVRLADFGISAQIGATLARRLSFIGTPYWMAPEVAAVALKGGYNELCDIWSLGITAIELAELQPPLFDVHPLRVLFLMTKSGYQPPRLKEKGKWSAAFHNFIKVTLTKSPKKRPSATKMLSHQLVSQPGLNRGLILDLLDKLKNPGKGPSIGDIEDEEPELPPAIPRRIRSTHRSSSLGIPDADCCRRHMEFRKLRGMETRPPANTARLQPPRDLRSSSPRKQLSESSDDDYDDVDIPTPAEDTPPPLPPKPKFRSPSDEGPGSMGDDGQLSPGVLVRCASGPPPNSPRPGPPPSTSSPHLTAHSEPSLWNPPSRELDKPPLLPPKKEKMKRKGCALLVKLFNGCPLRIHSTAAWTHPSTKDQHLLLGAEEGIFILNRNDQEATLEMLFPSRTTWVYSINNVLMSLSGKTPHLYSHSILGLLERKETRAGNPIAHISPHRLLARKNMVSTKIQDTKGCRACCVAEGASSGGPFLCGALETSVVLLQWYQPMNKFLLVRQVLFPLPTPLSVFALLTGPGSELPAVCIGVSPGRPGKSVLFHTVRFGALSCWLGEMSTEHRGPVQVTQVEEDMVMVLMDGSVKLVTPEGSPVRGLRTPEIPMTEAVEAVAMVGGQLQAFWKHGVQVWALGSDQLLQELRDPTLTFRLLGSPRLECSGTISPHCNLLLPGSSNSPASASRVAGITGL
T2 sequence (P48729 whole entry): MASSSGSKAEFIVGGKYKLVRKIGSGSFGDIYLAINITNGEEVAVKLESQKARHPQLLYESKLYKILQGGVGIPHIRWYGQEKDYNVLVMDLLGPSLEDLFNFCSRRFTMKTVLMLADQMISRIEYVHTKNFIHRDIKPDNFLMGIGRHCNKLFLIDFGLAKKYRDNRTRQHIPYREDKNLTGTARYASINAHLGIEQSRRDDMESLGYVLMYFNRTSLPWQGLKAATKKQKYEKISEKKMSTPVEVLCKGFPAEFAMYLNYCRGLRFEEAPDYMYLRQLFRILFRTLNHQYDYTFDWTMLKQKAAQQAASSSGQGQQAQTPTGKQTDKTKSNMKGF
T1 sequence (Q06187 whole entry): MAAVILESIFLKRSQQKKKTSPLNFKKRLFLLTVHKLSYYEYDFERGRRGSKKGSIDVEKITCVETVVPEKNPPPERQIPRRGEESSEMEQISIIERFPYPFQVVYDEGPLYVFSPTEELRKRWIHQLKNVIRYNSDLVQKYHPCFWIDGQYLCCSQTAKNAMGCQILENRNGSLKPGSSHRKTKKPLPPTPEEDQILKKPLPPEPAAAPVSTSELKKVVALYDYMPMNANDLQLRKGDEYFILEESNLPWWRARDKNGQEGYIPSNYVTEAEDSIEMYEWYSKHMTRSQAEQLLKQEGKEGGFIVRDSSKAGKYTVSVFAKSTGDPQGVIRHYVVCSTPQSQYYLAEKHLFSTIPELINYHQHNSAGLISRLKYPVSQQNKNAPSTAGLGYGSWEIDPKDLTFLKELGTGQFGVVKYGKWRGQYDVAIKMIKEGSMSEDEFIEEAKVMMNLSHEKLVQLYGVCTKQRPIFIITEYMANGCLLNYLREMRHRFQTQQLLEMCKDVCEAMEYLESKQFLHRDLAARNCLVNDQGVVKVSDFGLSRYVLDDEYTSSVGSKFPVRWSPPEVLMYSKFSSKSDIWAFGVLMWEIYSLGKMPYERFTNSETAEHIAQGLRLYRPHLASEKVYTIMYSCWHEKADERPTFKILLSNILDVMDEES

Row | Compound | IC50 (kinases (kinome) [1]) [µM] | IC50 (kinases (kinome) [2]) [µM] | IC50 (kinases (kinome) [3]) [µM] | IC50 (kinases (kinome) [4]) [µM] | IC50 (kinases (kinome) [5]) [µM] | IC50 (kinases (kinome) [6]) [µM] | IC50 (kinases (kinome) [7]) [µM] | IC50 (kinases (kinome) [8]) [µM] | IC50 (kinases (kinome) [9]) [µM] | IC50 (kinases (kinome) [10]) [µM] | IC50 (kinases (kinome) [11]) [µM] | IC50 (kinases (kinome) [12]) [µM] | IC50 (kinases (kinome) [13]) [µM] | IC50 (kinases (kinome) [14]) [µM] | IC50 (kinases (kinome) [15]) [µM] | IC50 (kinases (kinome) [16]) [µM]
1 | C[C@H]1COCCN1c1nc(-c2ccc(NC(=O)NC3CC3)cc2)cc(-c2ccccc2S(C)(=O)=O)n1 [Example 4, (S)-1-cyclopropyl-3-(4-(2-(3-methylmorpholino)-6-(2-(methylsulfonyl)phenyl)pyrimidin-4-yl)phenyl)urea] | > 10 | > 10 | > 10 | > 10 | > 10 | > 10 | > 10 | > 10 | 0.3 to 0.4 | > 10 | > 10 | > 10 | > 10 | > 10 | > 10 | > 10
2 | C[C@H]1COCCN1c1cc(-c2ccccc2S(C)(=O)=O)nc(-c2ccc(NC(=O)NC3CC3)cc2)n1 [Example 6, (S)-1-cyclopropyl-3-(4-(4-(3-methylmorpholino)-6-(2-(methylsulfonyl)phenyl)pyrimidin-2-yl)phenyl)urea] | > 10 | > 10 | > 10 | > 10 | – | > 10 | > 10 | > 10 | 0.1 to 0.2 | > 10 | > 10 | > 10 | > 10 | > 10 | > 10 | > 10
3 | CCNC(=O)Nc1ccc(-c2cc(-c3ccccc3C#N)nc(N3CCOC[C@@H]3C)n2)cc1 [Example 8, (S)-1-(4-(6-(2-cyanophenyl)-2-(3-methylmorpholino)pyrimidin-4-yl)phenyl)-3-ethylurea] | > 10 | > 10 | > 10 | > 10 | > 10 | > 10 | > 10 | > 10 | 0.1 to 0.2 | > 10 | > 10 | > 10 | > 10 | > 10 | > 10 | > 10
4 | C[C@H]1COCCN1c1nc(-c2ccc(NC(=O)NC3CC3)cc2)cc(-c2cc(F)ccc2S(C)(=O)=O)n1 [Example 40, (S)-1-cyclopropyl-3-(4-(6-(5-fluoro-2-(methylsulfonyl)phenyl)-2-(3-methylmorpholino)pyrimidin-4-yl)phenyl)urea] | > 10 | > 10 | > 10 | > 10 | > 10 | > 10 | > 10 | > 10 | 0.1 to 0.2 | > 10 | > 10 | > 10 | > 10 | > 10 | > 10 | > 10
5 | C[C@H]1COCCN1c1cc(-c2ccccn2)nc(-c2ccc(NC(=O)NCCO)cc2)n1 [Example 43, (S)-1-(2-hydroxyethyl)-3-(4-(4-(3-methylmorpholino)-6-(pyridin-2-yl)pyrimidin-2-yl)phenyl)urea] | > 10 | > 10 | > 10 | > 10 | > 10 | > 10 | > 10 | > 10 | 0.1 to 0.2 | > 10 | > 10 | > 10 | > 10 | > 10 | > 10 | > 10
6 | C[C@H]1COCCN1c1nc(-c2ccc(NC(=O)NC3CC3)cc2)cc(-c2cccnc2S(C)(=O)=O)n1 [Example 46, (S)-1-cyclopropyl-3-(4-(2-(3-methylmorpholino)-6-(2-(methylsulfonyl)pyridin-3-yl)pyrimidin-4-yl)phenyl)urea] | > 10 | > 10 | > 10 | > 10 | > 10 | > 10 | > 10 | > 10 | 0.2 to 0.3 | > 10 | > 10 | > 10 | > 10 | > 10 | > 10 | > 10
7 | C[C@H]1COCCN1c1nc(-c2ccc(NC(=O)N[C@H]3CCC[C@@H]3O)cc2)cc(-c2cc(F)ccc2S(C)(=O)=O)n1 [Example 76, 1-(4-(6-(5-fluoro-2-(methylsulfonyl)phenyl)-2-((S)-3-methylmorpholino)pyrimidin-4-yl)phenyl)-3-((1S,2S)-2-hydroxycyclopentyl)urea] | > 10 | > 10 | > 10 | > 10 | > 10 | > 10 | > 10 | > 10 | 0.1 to 0.2 | > 10 | > 10 | > 10 | – | > 10 | > 10 | > 10
